Data: patent US12448433B2, “Human ApoB100 epitopes, methods and uses for modulating inflammatory responses, and treating adverse cardiovascular events, disease and atherosclerosis” (LA JOLLA INSTITUTE FOR ALLERGY AND IMMUNOLOGY, priority 2015, dated 2025)
No end group written: not given here.

Tests used:
[1] = target: DPB1*04:02; assay: Peptide binding to HLA-DP allele, competition assay; parameters: species or system human
Text: (§1) Peptide binding to MHC-II requires anchor residues in certain positions and thus can be predicted using computer algorithms. Affinity can be measured experimentally using a competition assay (1). Both are excellent screening tools. However, affinity must be measured separately for each MHC-II allele. Humans express molecules encoded in four different MHC-II loci, denominated HLA-DRB1, DRB3/4/5, DP and DQ. Allelic variation is large, and most people are heterozygous at each locus, thus expressing up to 8 relevant MHC-II alleles. CD4 T cell responses strictly require that the antigenic peptide binds to the relevant MHC-II.
(§2) To identify peptides that could potentially be used in human patients, 30 peptides were screened for binding to 26 HLA alleles by competition assay.

[2] = target: DPB1*05:01; assay: as above; parameters: species or system human
Text: as §1, §2

[3] = target: T1, DPB1*04:01 (Homo sapiens, UniProt P04440); assay: as above
T1 sequence (P04440 30-258): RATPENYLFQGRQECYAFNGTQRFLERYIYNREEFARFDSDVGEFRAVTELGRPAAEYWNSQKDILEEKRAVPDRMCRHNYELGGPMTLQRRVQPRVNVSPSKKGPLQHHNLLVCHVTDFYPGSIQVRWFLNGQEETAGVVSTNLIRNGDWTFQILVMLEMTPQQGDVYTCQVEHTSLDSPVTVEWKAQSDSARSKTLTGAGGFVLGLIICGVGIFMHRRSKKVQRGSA
T1 sequence (P20036 29-260 partner): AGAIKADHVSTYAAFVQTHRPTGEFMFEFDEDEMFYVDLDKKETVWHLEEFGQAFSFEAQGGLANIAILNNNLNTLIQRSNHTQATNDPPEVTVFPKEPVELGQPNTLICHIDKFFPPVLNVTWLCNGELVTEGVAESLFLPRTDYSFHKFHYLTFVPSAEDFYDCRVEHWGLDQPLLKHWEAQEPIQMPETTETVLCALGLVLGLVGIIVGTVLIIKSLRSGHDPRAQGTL
Text: as §1, §2

[4] = target: DQB1*06:02; assay: Peptide binding to HLA-DQ allele, competition assay; parameters: species or system human
Text: as §1, §2

[5] = target: DPB1*14:01; assay: Peptide binding to HLA-DP allele, competition assay; parameters: species or system human
Text: as §1, §2

[6] = target: DQB1*05:01; assay: Peptide binding to HLA-DQ allele, competition assay; parameters: species or system human
Text: as §1, §2

[7] = target: DPB1*02:01; assay: Peptide binding to HLA-DP allele, competition assay; parameters: species or system human
Text: as §1, §2

Row | IC50 [1] [nM] | IC50 [2] [nM] | IC50 [3] [nM] | IC50 [4] [nM] | IC50 [5] [nM] | IC50 [6] [nM] | IC50 [7] [nM] | Compound
1 | 419 | 2380 | 2100 | – | 7020 | 6000 | 9070 | CC[C@H](C)[C@H](NC(=O)[C@H](CO)NC(=O)[C@H](Cc1ccc(O)cc1)NC(=O)[C@H](CC(C)C)NC(=O)[C@H](CCCCN)NC(=O)CN)C(=O)N[C@@H](CC(C)C)C(=O)N[C@@H](CCCCN)C(=O)N[C@H](C(=O)N[C@@H](CCC(N)=O)C(=O)N[C@@H](CO)C(=O)N1CCC[C@H]1C(=O)N[C@@H](CC(C)C)C(=O)N[C@@H](Cc1ccccc1)C(=O)N[C@H](C(=O)O)[C@@H](C)O)[C@@H](C)CC [Peptide 3563.0016]
2 | 67 | 221 | 2.1 | 2650 | 15 | – | 3.3 | CC(C)C[C@H](NC(=O)[C@H](C)NC(=O)[C@H](Cc1ccccc1)NC(=O)[C@H](CO)NC(=O)[C@H](CO)NC(=O)[C@@H](NC(=O)[C@H](CCCNC(=N)N)NC(=O)[C@H](CC(C)C)NC(=O)[C@H](CCCCN)NC(=O)[C@H](CCCCN)NC(=O)[C@@H](N)Cc1ccc(O)cc1)[C@@H](C)O)C(=O)N[C@@H](CC(N)=O)C(=O)N[C@@H](CC(C)C)C(=O)N1CCC[C@H]1C(=O)N[C@H](C(=O)O)[C@@H](C)O [Peptide 3563.0022]
3 | – | 3820 | – | 12200 | – | 19 | – | CC[C@H](C)[C@H](N)C(=O)N[C@@H](CC(C)C)C(=O)N[C@@H](Cc1ccccc1)C(=O)N[C@@H](CO)C(=O)N[C@@H](Cc1ccc(O)cc1)C(=O)N[C@@H](Cc1ccccc1)C(=O)N[C@@H](CCC(N)=O)C(=O)N[C@@H](CC(=O)O)C(=O)N[C@@H](CC(C)C)C(=O)N[C@H](C(=O)N[C@H](C(=O)N[C@H](C(=O)N[C@@H](CC(C)C)C(=O)N1CCC[C@H]1C(=O)N[C@@H](Cc1ccccc1)C(=O)O)[C@@H](C)O)[C@@H](C)CC)C(C)C [Peptide 3563.0023]
4 | – | – | – | – | 13700 | 13 | – | CC[C@H](C)[C@H](NC(=O)[C@H](CC(C)C)NC(=O)[C@H](Cc1ccc(O)cc1)NC(=O)[C@@H](NC(=O)[C@H](Cc1ccccc1)NC(=O)[C@@H](N)CCCCN)[C@@H](C)O)C(=O)N[C@@H](CC(N)=O)C(=O)N[C@@H](Cc1ccc(O)cc1)C(=O)N[C@H](C(=O)N[C@@H](CCC(N)=O)C(=O)N[C@@H](CC(=O)O)C(=O)N[C@@H](CCC(=O)O)C(=O)N[C@H](C(=O)N[C@@H](CC(N)=O)C(=O)N[C@H](C(=O)O)[C@@H](C)O)[C@@H](C)CC)[C@@H](C)CC [Peptide 3563.0025]
5 | – | 6900 | – | 4550 | 15200 | – | – | CC[C@H](C)[C@H](NC(=O)[C@H](CCC(=O)O)NC(=O)[C@@H](N)CC(=O)O)C(=O)N[C@@H](CC(N)=O)C(=O)N[C@H](C(=O)N[C@H](C(=O)N[C@@H](Cc1ccccc1)C(=O)N[C@@H](CO)C(=O)N[C@@H](CC(=O)O)C(=O)N[C@@H](Cc1ccc(O)cc1)C(=O)N[C@H](C(=O)N1CCC[C@H]1C(=O)N[C@@H](Cc1ccc(O)cc1)C(=O)N[C@H](C(=O)N[C@@H](Cc1ccccc1)C(=O)O)C(C)C)[C@@H](C)CC)[C@@H](C)CC)[C@@H](C)O [Peptide 3563.0026]
6 | 51 | 122 | 817 | 897 | 1820 | – | 80 | CC[C@H](C)[C@H](NC(=O)[C@H](Cc1ccc(O)cc1)NC(=O)[C@H](CCC(N)=O)NC(=O)[C@H](Cc1c[nH]cn1)NC(=O)[C@@H](NC(=O)[C@@H](N)CCC(N)=O)[C@@H](C)CC)C(=O)N[C@@H](CCSC)C(=O)N[C@@H](C)C(=O)N[C@@H](CC(C)C)C(=O)N[C@@H](CCCNC(=N)N)C(=O)N[C@@H](CCC(=O)O)C(=O)N[C@@H](CCC(=O)O)C(=O)N[C@@H](Cc1ccc(O)cc1)C(=O)N[C@@H](Cc1ccccc1)C(=O)N[C@@H](CC(=O)O)C(=O)O [Peptide 3563.0027]
7 | 15600 | 9160 | 25000 | – | – | – | 23200 | CC[C@H](C)[C@H](N)C(=O)N[C@@H](CC(=O)O)C(=O)N[C@@H](CC(C)C)C(=O)N[C@@H](CO)C(=O)N[C@H](C(=O)N[C@@H](CCC(N)=O)C(=O)N[C@@H](CC(N)=O)C(=O)N[C@@H](Cc1ccc(O)cc1)C(=O)N[C@@H](Cc1c[nH]cn1)C(=O)N[C@H](C(=O)N[C@@H](Cc1ccccc1)C(=O)N[C@@H](CC(C)C)C(=O)N[C@H](C(=O)N[C@@H](Cc1ccc(O)cc1)C(=O)N[C@H](C(=O)O)[C@@H](C)CC)[C@@H](C)CC)[C@@H](C)O)[C@@H](C)CC [Peptide 3563.0029]

Continued, compound first:

Row | Compound | IC50 [1] [nM] | IC50 [2] [nM] | IC50 [3] [nM] | IC50 [4] [nM] | IC50 [5] [nM] | IC50 [6] [nM] | IC50 [7] [nM]
8 | CC(C)C[C@H](NC(=O)[C@H](CC(C)C)NC(=O)[C@H](CC(C)C)NC(=O)[C@H](CC(C)C)NC(=O)[C@H](C)NC(=O)[C@@H]1CCCN1C(=O)[C@H](CC(C)C)NC(=O)[C@H](C)NC(=O)[C@H](CC(C)C)NC(=O)[C@H](CC(C)C)NC(=O)[C@H](C)NC(=O)[C@H](CC(C)C)NC(=O)[C@H](CC(C)C)NC(=O)[C@H](C)NC(=O)[C@@H]1CCCN1)C(=O)O [Peptide 3563.001] | 1630 | 6560 | 14000 | 24200 | – | – | –
9 | CC[C@H](C)[C@H](NC(=O)[C@H](CC(C)C)NC(=O)[C@@H](N)CC(C)C)C(=O)N[C@@H](CC(=O)O)C(=O)N[C@H](C(=O)N[C@H](C(=O)N[C@H](C(=O)N[C@@H](Cc1ccc(O)cc1)C(=O)N[C@@H](CC(C)C)C(=O)N[C@H](C(=O)N[C@@H](C)C(=O)N[C@@H](CC(C)C)C(=O)N[C@H](C(=O)N1CCC[C@H]1C(=O)N[C@@H](CCC(=O)O)C(=O)O)[C@@H](C)CC)C(C)C)[C@@H](C)O)C(C)C)C(C)C [Peptide 3563.0002] | – | – | – | 38800 | 8570 | 3620 | –
10 | CC[C@H](C)[C@H](NC(=O)[C@H](CC(=O)O)NC(=O)[C@H](CC(C)C)NC(=O)[C@H](CC(C)C)NC(=O)[C@H](CCC(=O)O)NC(=O)[C@@H](N)CCC(N)=O)C(=O)N[C@@H](C)C(=O)N[C@@H](CC(N)=O)C(=O)N[C@@H](Cc1ccc(O)cc1)C(=O)N[C@@H](CC(C)C)C(=O)N[C@@H](CCSC)C(=O)N[C@@H](CCC(=O)O)C(=O)N[C@@H](CCC(N)=O)C(=O)N[C@H](C(=O)N[C@@H](CCC(N)=O)C(=O)O)[C@@H](C)CC [Peptide 3563.0003] | 182 | – | 2580 | 2430 | – | 4 | 1780
11 | CC[C@H](C)[C@H](NC(=O)[C@H](Cc1ccc(O)cc1)NC(=O)[C@H](Cc1c[nH]cn1)NC(=O)[C@H](CC(C)C)NC(=O)[C@@H](N)Cc1ccccc1)C(=O)N[C@@H](Cc1ccccc1)C(=O)N[C@@H](CCSC)C(=O)N[C@@H](CCC(=O)O)C(=O)N[C@@H](CC(N)=O)C(=O)N[C@@H](C)C(=O)N[C@@H](Cc1ccccc1)C(=O)N[C@@H](CCC(=O)O)C(=O)N[C@@H](CC(C)C)C(=O)N1CCC[C@H]1C(=O)N[C@H](C(=O)O)[C@@H](C)O [Peptide 3563.0006] | 4.4 | – | 32 | – | – | 39 | 40
12 | CC[C@H](C)[C@H](NC(=O)CNC(=O)[C@H](CCSC)NC(=O)[C@H](CC(N)=O)NC(=O)[C@@H](NC(=O)[C@@H](NC(=O)[C@H](Cc1ccccc1)NC(=O)[C@H](CCC(=O)O)NC(=O)[C@@H](N)C(C)C)C(C)C)[C@@H](C)O)C(=O)N[C@H](C(=O)N[C@H](C(=O)N1CCC[C@H]1C(=O)N[C@@H](CC(=O)O)C(=O)N[C@@H](Cc1ccccc1)C(=O)N[C@@H](C)C(=O)O)[C@@H](C)CC)[C@@H](C)CC [Peptide 3563.0007] | – | 6690 | – | 8400 | 15600 | 228 | 12
13 | CC(C)C[C@H](NC(=O)[C@H](CC(C)C)NC(=O)[C@H](Cc1ccccc1)NC(=O)[C@H](CCCCN)NC(=O)[C@H](CO)NC(=O)[C@H](Cc1ccc(O)cc1)NC(=O)[C@H](CC(C)C)NC(=O)[C@@H](N)CCC(N)=O)C(=O)N[C@@H](CCCCN)C(=O)N[C@@H](C)C(=O)N[C@@H](CCC(=O)O)C(=O)N1CCC[C@H]1C(=O)N[C@@H](CC(C)C)C(=O)N[C@@H](C)C(=O)N[C@@H](Cc1ccccc1)C(=O)O [Peptide 3563.0011] | – | 83 | – | – | 51 | 588 | –
14 | CC[C@H](C)[C@H](NC(=O)[C@H](CCC(=O)O)NC(=O)[C@H](CC(=O)O)NC(=O)[C@@H](NC(=O)[C@@H](NC(=O)[C@H](CC(N)=O)NC(=O)[C@H](C)NC(=O)[C@@H](NC(=O)[C@H](C)NC(=O)[C@@H](NC(=O)[C@H](CCCCN)NC(=O)[C@H](CC(C)C)NC(=O)[C@H](CC(=O)O)NC(=O)[C@H](Cc1c[nH]cn1)NC(=O)[C@@H](N)CC(C)C)[C@@H](C)CC)[C@@H](C)CC)[C@@H](C)CC)[C@@H](C)CC)C(=O)O [Peptide 3563.0013] | – | 6520 | – | 1830 | – | 691 | –
15 | LSQLTYMIQFDQYI [Peptide 3563.0012] | 622 | 4120 | – | 43100 | – | 28 | 576
16 | TLTAFGFASADLLEI [Peptide 3563.0005] | 5.3 | – | – | – | 847 | 118 | –
